Data published in patent US9062018B2, “Crytalline form of 13-[(N-tert-butoxycarbonyl)-2′-O-hexanoyl-3-phenylisoserinyl]-10-deacetylbaccatin III” (Indena S.p.A, priority 2010, dated 2015).

Columns and labels:
[1] = ICH stability studies (chemical stability of the solid form); type: physicochemical; details: mainly an impurity stemming from oxidation of the 10-position of the baccatin core
Description: Thus it is desirable to find a crystalline form of compound (1) which is chemically and thermodynamically stable. A method for preparing such solid form of compound (1) continually and constantly is also a prerequisite for the development of a robust manufacturing process.

[2] = Stability data at 25±2° C. and 60±5% relative humidity of amorphous and Form A of compound (1); type: physicochemical; details: for HPLC assay (%) of compound (1) with reference to the anhydrous and solvent free basis / IR identification / Potential impurity-HPLC (area %): 10-dehydro compound (1): 25±2° C.; for HPLC assay (%) of compound (1) with reference to the anhydrous and solvent free basis / IR identification / Potential impurity-HPLC (area %): 10-dehydro compound (1) / Specific optical rotation (°) (c = 1 ethanol, at 20° C.): 60±5% relative humidity; for Specific optical rotation (°) (c = 1 ethanol, at 20° C.): storage 25±2° C.
Procedure: Stability data at 25±2° C. and 60±5% relative humidity of amorphous and Form A of compound (1). The packaging was the same for both solid forms (Amber glass vial+polyethylene bag+vacuum sealed PET/Aluminum/PE multilayer bag).

[3] = T = 0, against the reference FTIR figure of the form
[4] = T = 0, amber glass vial + polyethylene bag + vacuum sealed PET/Aluminum/PE multilayer bag

| SMILES | Chemical stability during ICH stability studies [1] | HPLC assay (%) of compound (1) with reference to the anhydrous and solvent free basis ([2]; 3 months) | IR identification ([2]; 3 months) | Potential impurity-HPLC (area %): 10-dehydro compound (1) ([2]; 3 months) | Specific optical rotation (°) (c = 1 ethanol, at 20° C.) ([2]; 3 months) | HPLC assay (%) of compound (1) with reference to the anhydrous and solvent free basis ([2]; 6 months) | IR identification ([2]; 6 months) | Potential impurity-HPLC (area %): 10-dehydro compound (1) ([2]; 6 months) | Specific optical rotation (°) (c = 1 ethanol, at 20° C.) ([2]; 6 months) | Potential impurity-HPLC (area %): 10-dehydro compound (1) ([2]; T = 0) | IR identification [2, 3] | HPLC assay (%) of compound (1) with reference to the anhydrous and solvent free basis [2, 4] | Specific optical rotation (°) (c = 1 ethanol, at 20° C.) ([2]; T = 0) | Oxidation of the 10-position of the baccatin core ([2]; solid form on storage) |
| --- | --- | --- | --- | --- | --- | --- | --- | --- | --- | --- | --- | --- | --- | --- |
| CCCCCC(=O)OC(C(=O)OC1CC2(O)C(OC(=O)c3ccccc3)C3C4(OC(C)=O)COC4CC(O)C3(C)C(=O)C(O)C(=C1C)C2(C)C)C(NC(=O)OC(C)(C)C)c1ccccc1 (centres unmarked) [Amourphous Form of compound (1), 13-[(N-tert-butoxycarbonyl)-2′-O-hexanoyl-3-phenylisoserinyl]-10-deacetylbaccatin III] | problems of chemical stability | 99.0% | Complies | 0.36% area % | −46.3 ° | 98.9% | Complie | 0.53% area % | −46.0 ° | 0.29% area % | Complies with | 99.7% | −46.0 ° |  |
| CCCCCC(=O)OC(C(=O)OC1CC2(O)C(OC(=O)c3ccccc3)C3C4(OC(C)=O)COC4CC(O)C3(C)C(=O)C(O)C(=C1C)C2(C)C)C(NC(=O)OC(C)(C)C)c1ccccc1 (centres unmarked) [Form A of compound (1), 13-[(N-tert-butoxycarbonyl)-2′-O-hexanoyl-3-phenylisoserinyl]-10-deacetylbaccatin III] |  | 99.0% | Complies | 0.29% area % | −46.3 ° | 99.1% | Complies | 0.29% area % | −46.3 ° | 0.29% area % | Complies with | 99.0% | −46.2 ° | prevented |
